The subject of the experiment is Plasmodium falciparum. Kind of experiment: GSK_TCMDC: Inhibition of Plasmodium falciparum 3D7 in whole erythrocytes, using parasite LDH activity as an index of growth. The class given is functional, organism-based. To be noted: Plasmodium falciparum, 3D7.
For the compound `COc1ccccc1CCNC(=O)c1cnc(N2CCN(c3ccncc3)CC2)c(Cl)c1`, the XC50 was 1150 nM.

Turning to `c1ccc(CN2CCCN(c3ccc4c(c3)CCN(Cc3ccc(-c5ncc[nH]5)cc3)CC4)CC2)cc1`, the XC50 was 762 nM. For `CCc1c(CCNCCCCCCNCCc2ccc([N+](=O)[O-])cc2)ccc(OC)c1OC` the value was 727 nM; for `N=C(NCCc1ccccc1Cl)c1ccc2ccccc2c1`, 1630 nM; for `CCCC(CNCc1cccc(OC(F)(F)C(F)F)c1)CNc1cc(=O)c2ccccc2[nH]1` (configuration not stated), 595 nM.

Compound `COc1ccc2nccc([C@@H](O)CN3CCC(NC(=O)c4ccc(Oc5ccccc5)cc4)CC3)c2c1` gave an XC50 of 1380 nM. For `CC1(C)N=C(N)N=C(N)N1OCc1ccc2c(c1)OCO2` the value was 3.68 nM; for `CN1CC(c2ccc(Cl)c(Cl)c2)OC1=N` (configuration not stated), 283 nM; for `COCc1ccccc1C(=O)NCCOc1cc(C)cc(C)c1`, 353 nM. In turn, `CCc1cn2c3c(cc(C(=O)N[C@@H](Cc4cccc(F)c4)[C@H](O)CNC4CC4)cc13)N(C)S(=O)(=O)CC2` registered an XC50 of 143 nM.

The compound `O=C(Nc1ccc(C(=O)N2CCN(CCN3CCN(c4cccc(C(F)(F)F)c4)CC3)CC2)cc1)c1ccc(OC(F)(F)F)cc1` showed an XC50 of 691 nM. For `CCCCCCn1c2c(c(=N)c3c1CCC3)CCCC2` the value was 291 nM.

`c1ccc(COc2ccc(Cn3ccc(-c4ccc(-n5ccnc5)cc4)n3)cc2)cc1.c1ccc(COc2ccc(Cn3nccc3-c3ccc(-n4ccnc4)cc3)cc2)cc1` gave an XC50 of 1020 nM. For `Cc1cc(N2CCOCC2)nc2ccc(NC(=O)c3cccc([N+](=O)[O-])c3)cc12` the value was 890 nM; for `CCC(C)(C)c1ccc2nc(N)nc(N)c2c1C`, 5.21 nM; for `CCN(CC)c1ccc(C(c2ccc(N(CC)CC)cc2)c2cccc([N+](=O)[O-])c2)cc1`, 381 nM. Under `Cc1noc(C)c1-c1ccc2c(Nc3ccccc3C(C)(C)C)c(C(=O)NC3CCCC3)cnc2c1` stands 1040 nM; under `Cc1cc(=O)c2cc(Oc3cccc(OC(F)(F)F)c3)ccc2[nH]1`, 862 nM. For `CC(Cc1ccc(Sc2ccccc2)cc1)NCC(O)c1cccc(C(F)(F)F)c1` (configuration not stated) the value was 589 nM; for `CCCCCCNC(=O)C(N)CCCC(N)C(=O)NCCCCCC` (configuration not stated), 162 nM; for `CCn1c(=O)c(C(=O)Nc2cc(Cl)c(OC)cc2OC)nc2ccccc21`, 244 nM. With `CCCCCCCn1c(=N)n(CC(O)c2ccc(Cl)c(Cl)c2)c2ccccc21` (configuration not stated), the XC50 amounted to 782 nM. Under `Cc1nc2ccc3ccc(CNc4ccc(C#N)cc4)cc3c2c(=O)[nH]1` stands 1440 nM. `c1ccc2cc3c(Nc4ccc(N5CCCCCC5)cc4)ccnc3cc2c1` displayed an XC50 of 936 nM. `Cc1cc2cc(CNCCc3ccccc3Br)ccc2nc1N` showed an XC50 of 243 nM. Under `CCSc1nnc(C2CCCN(CC(=O)Nc3cc(C(F)(F)F)ccc3Cl)C2)n1CC` (configuration not stated) stands 232 nM.

In the case of `CC(=O)N[C@H](C(=O)Nc1ccc(-c2ccc(-c3nc4cc(C(F)(F)F)ccc4[nH]3)cc2)cc1)C(C)C`, the XC50 amounted to 889 nM. `O=C(NCc1cccc2ccccc12)C1CCCN(C(=O)c2ccc(O)c(-c3ccc(Cl)c(Cl)c3)c2)C1` (configuration not stated) yielded an XC50 of 1030 nM. Under `FC(F)(F)c1ccc2[nH]c(-c3ccc(-c4ccc(CN5CCN(c6cnccn6)CC5)cc4)cc3)nc2c1` stands 687 nM. `[O-][s+]1c(Cl)c(-c2ccc(Cl)cc2)c2ccc(Cl)cc21` (configuration not stated) showed an XC50 of 993 nM. Compound `CN(CCON1C(=N)N=C(N)NC1(C)C)c1ccccc1` gave an XC50 of 19.4 nM. For `CC(CN(C)C)C(=O)Nc1ccc(-c2cccc(-c3nc4cc(C(F)(F)F)ccc4[nH]3)c2)cc1` (configuration not stated), the XC50 was found to be 210 nM. `COc1ccc2nccc(NC(=O)CNCc3ccc(-c4ccccc4)cc3)c2c1` returned an XC50 of 769 nM.

As to `COc1cc2nc(NCC3CCN(C(=O)c4ccc(-c5ccc(C(=O)N(C)C)cc5C)cc4)CC3)nc(N)c2cc1OC`, the XC50 was 948 nM. Under `CN=c1nc(NN=Cc2ccccc2Cl)[nH]c(=Nc2cccc(C(F)(F)F)c2)[nH]1` stands 915 nM; under `c1cc(CN2CCCCC2)cc(-c2cccc(-c3nc4ccccc4[nH]3)c2)c1`, 828 nM; under `COc1ccccc1C1CCN(C2CCC(NC(=O)/C=C/c3ccc4c(c3)OC(F)(F)O4)CC2)CC1` (configuration not stated), 836 nM. The compound `CCOc1ccc(C(Cc2ccccc2)NC(=O)c2cccnc2)cc1OCC` (configuration not stated) yielded an XC50 of 769 nM. With `CCCC(C)NC[C@@H](O)[C@H](Cc1ccccc1)NC(=O)c1cc(NCC)cc(N2CCCCS2(=O)=O)c1` (some centres not stated), the XC50 was 163 nM. For the compound `CCNc1cc(C(=O)N[C@@H](Cc2ccccc2)[C@H](O)CNC23CCC(CC2)CC3)cc(N2CCCCS2(=O)=O)c1`, the XC50 is 63.2 nM. For `CN(Cc1ccncc1)C(Cc1ccccc1)C1CCN(Cc2ccc(O)c(Cl)c2)CC1` (configuration not stated) the value was 747 nM; for `COc1cccc(OC)c1-c1ccccc1NC(=O)N1CCCc2cc(C)ccc21`, 823 nM. Under `O=C(N[C@H]1CCN(CCc2ccc(O[C@H]3CCNC3)c(Cl)c2)C1)c1ccc(Cl)c(Cl)c1` stands 890 nM. `O=C(/C=C/c1ccc(Cl)c(Cl)c1)NCCCCCN1CC[C@H](NC(=O)c2sc3ccccc3c2Cl)C1` came in with an XC50 of 809 nM.

`Cc1cc(C(=O)Nc2ccc3c(c2)CCN3C2CCN(Cc3csc4ccccc34)C2)no1` (configuration not stated) returned an XC50 of 119 nM. Under `COC(=O)c1cc(/C(C)=N/Nc2nc3ccccc3[nH]2)ccc1O` stands 676 nM; under `CC(=O)Nc1cc(C(=O)Nc2cccc(-c3cccc(-c4nc5cc(C(F)(F)F)ccc5[nH]4)c3)c2)ccc1C`, 215 nM; under `COc1ccc2nccc([C@@H](O)CN3CCC(NCc4ccc5c(c4)OCCO5)CC3)c2c1`, 288 nM.

As to `Cc1cc(N)c2cc(NC(=O)c3cc4ccccc4s3)ccc2n1`, the XC50 came to 115 nM. For `O=C(NC1CC1)c1ccc(N2CCCCN2CCc2ccccc2)c(C(F)(F)F)c1` the value was 622 nM; for `CCNc1cc(C(=O)N[C@@H](Cc2ccccc2Cl)[C@H](O)CNC2CCCCC2)cc(N2CCCCS2(=O)=O)c1`, 803 nM. Under `COc1cc(C(F)(F)F)c2cc(CNCCCNc3nc4ccccc4[nH]3)[nH]c2c1` stands 305 nM; under `CC(C)N(C)C(=O)n1cnc(S(=O)(=O)C2CC3CCC2C3)n1` (configuration not stated), 57 nM; under `COC(=O)c1cc(C(O)CNC(C)CCc2cccc(F)c2)ccc1O` (configuration not stated), 1180 nM.

Compound `c1ccc(CNc2nc(NCCN3CCCCC3)nc3ccccc23)cc1` displayed an XC50 of 1020 nM. Under `Cc1cccc2nc(-c3ccc(-c4cccc(CN5CCCCC5)c4)s3)[nH]c12` stands 468 nM. For `CN1CCC(N2CCN(Cc3ccc(-c4cccc(-c5nc6cc(F)ccc6[nH]5)c4)cc3)CC2)CC1` the value was 173 nM; for `CC(C)(C)CCN1CCC(CNC(=O)c2cc(-c3cccc(C(F)(F)F)c3)cs2)C1` (configuration not stated), 887 nM; for `Cc1cc(CN2CCC(N3CC(c4ccccc4)(c4ccccc4)OC3=O)C2)ccc1O` (configuration not stated), 776 nM. Under `COc1ccc2nccc([C@@H](O)CN3CCC(NCc4nc5ccccc5[nH]4)CC3)c2c1` stands 1070 nM; under `CC(=O)Oc1c(C2C=CCCC2)c(OC(C)=O)c2ccccc2c1OC(C)=O` (configuration not stated), 605 nM. The compound `Cc1cc(=NN=Cc2ccc(Cl)cc2)c2cc(F)ccc2[nH]1` came in with an XC50 of 828 nM. The compound `CC(C(=O)Nc1ccc(Br)cc1Br)N1CCN(C(=O)c2ccco2)CC1` (configuration not stated) came in with an XC50 of 750 nM.

`COc1ccc(Cc2c(Cl)nc3nc(N)nc(N)c3c2C)c(OC)c1OC`: the XC50 was determined as 725 nM. `COc1cccc(C(=O)NCc2nnc(S)n2-c2ccc(Cl)c(Cl)c2)c1` had an XC50 of 173 nM.

With `Cc1ccc(Cn2ncc(NC3CCNCC3)c(Cl)c2=O)cc1NC(=O)Nc1ccc(-c2ccccc2)cc1`, the XC50 was 657 nM.

`C=CC(=O)Nc1ccc(Cl)cc1C(O)c1ccccc1` (configuration not stated): the XC50 is 182 nM. On to `Cc1cc(Nc2ccc(C)c(Cl)c2)n2ncnc2n1`, for which the XC50 was determined as 552 nM. `Cc1nc2nc(N)nc(N)c2c(C)c1Cc1ccccc1Br` registered an XC50 of 60.2 nM.

On to `N#Cc1cccc(Nc2nccc(NCC(O)c3ccc(C(F)(F)F)cc3)n2)c1` (configuration not stated), for which the XC50 was determined as 556 nM.

Regarding `Cc1nc2ccccc2n1C1CC2CCC(C1)N2Cc1nccn1-c1ccccc1` (configuration not stated), the XC50 is 366 nM. Under `COc1ccc(Cn2c(Nc3cccc(C(F)(F)F)c3)nc3cc(C(=O)NCCN4CCCC4)ccc32)cc1Cl` stands 830 nM; under `COc1cc(OC)nc(-c2cccc(NC(=O)c3ccc4c(=O)n(CCN5CCCCC5)cnc4c3)c2)n1`, 744 nM. For `CC(=O)Nc1nc(C(=O)Nc2cccc(-c3cccc(-c4nc5cccc(C)c5[nH]4)c3)c2)cs1` the value was 115 nM; for `Cc1cc(OCCCN2CCC(NS(=O)(=O)c3cccc(Br)c3)C2)c2ccccc2n1` (configuration not stated), 1210 nM. For `CC[C@H]1CN2CC[C@H]1C[C@H]2[C@H](O)c1cc(N2CCCC(CO)C2)nc2ccc(OC)cc12` (some centres not stated) the value was 77.5 nM; for `Cc1ccc(NC(=O)c2ccc(CN3CCCN(Cc4cccc(O)c4)CC3)cc2)cc1F`, 591 nM; for `CCOc1ccc(-n2nc3c(Cl)nnc(-c4ccccc4)c3c2-c2ccccc2)cc1`, 226 nM. `Cc1ccc2nc(-c3ccc(/C=C/C(=O)NC4CCN(Cc5ccccc5)CC4)cc3)[nH]c2c1C` had an XC50 of 632 nM. For `CCOC(=O)c1c(CCc2ccc(C(F)(F)F)cc2)nc2c(c1-c1ccc(C(=O)N[C@@H](C)c3ccncc3)cc1)C(=O)N1CCC[C@@H]21` the value was 924 nM; for `CC[C@H](NC(=O)c1c(CC2CCN(CC(C)=O)CC2)c(-c2ccccc2)nc2ccccc12)c1ccccc1`, 381 nM; for `Cc1cnc(-c2ccc(NC(=O)c3coc4ccc(N5CC(C)N(C)C(C)C5)cc34)cc2)o1` (configuration not stated), 645 nM. Take `COc1ccc2c(c1)CC(C)(C)NC2CCCCCCCCC1NC(C)(C)Cc2cc(OC)ccc21` (configuration not stated): the XC50 worked out at 1300 nM. Under `CN1CC=C(c2c[nH]c3ccc(Sc4ccccc4)cc23)CC1` stands 356 nM; under `COc1ccc2nc(-c3cc(-c4ccc(NC(=O)C(C)C)cc4)cnc3N)[nH]c2c1`, 557 nM; under `N#Cc1ccc(-c2ccc(C(=O)NCCCCN3CCC(n4cnc5ccccc54)CC3)cc2)cc1`, 910 nM.

With `Cc1c(C(=O)Nc2cc(Sc3ccc(F)cc3)cc([N+](=O)[O-])c2)sc2ncn(Cc3ccccc3F)c(=O)c12`, the XC50 came to 798 nM.

The values are drawn from ChEMBL document CHEMBL1157539, “Thousands of chemical starting points for antimalarial lead identification” (Nature, 2010).
